According to patent US8933123B2, “Polymorphic forms of O-desmethyl-venlafaxine succinate” (Cadila Healthcare Limited, priority 2010, dated 2015):

Assay: Storage stability of packed crystalline forms (water content and polymorphic conversion by X-ray powder diffraction)
Format: physicochemical
Source text: The crystalline form of O-desmethyl-venlafaxine succinate obtained in example-5 or example-6 were stored under nitrogen atmosphere and packed in a non-permeable bag tied with a thread, keeping primary packing inside a black color polyethylene bag containing oxygen busters and sealing it, placing above the non-permeable bag inside a triple laminated bag containing oxygen busters and sealing it, and placing the sealed triple laminated bag inside a closed high density polyethylene (HDPE) container.

[1] = storage for 3 months at 25° C. and a relative humidity of 60%
[2] = storage for 3 months at 40° C. and a relative humidity of 75%

water content after storage [1]	water content after storage [2]	Compound	crystalline Form-I or Form-II detected by X-ray powder diffraction after storage [1]	crystalline Form-I or Form-II detected by X-ray powder diffraction after storage [2]
≤ 1.5%	≤ 1.5%	CN(C)CC(c1ccc(O)cc1)C1(O)CCCCC1.O=C(O)CCC(=O)O (centres unmarked) [Form “Z1”, O-desmethyl-venlafaxine succinate]	no detectable amount of crystalline Form-I or Form-II	no detectable amount of crystalline Form-I or Form-II
≤ 3.0%	≤ 3.0%	CN(C)CC(c1ccc(O)cc1)C1(O)CCCCC1.O=C(O)CCC(=O)O (centres unmarked) [Form “Z”, O-desmethyl-venlafaxine succinate]	no detectable amount of crystalline Form-I or Form-II	no detectable amount of crystalline Form-I or Form-II
